Results from patent US6197774A, “Pyrimidine derivative” (Otsuka Pharmaceutical Co., Ltd., priority 1997, dated 2001).

Test system: formation of NO in cell strain RAW 264.7
Test: Activity for inhibiting the formation of NO (LPS-stimulated RAW 264.7 cells, Griess reagent)
Assay type: cell-based
Details: Mus musculus, RAW264.7, 1 × 10^-6 M, LPS 100 ng/ml, 24 hours, read-out: Ratio of formed amount of NO (reference culture medium = 100)
Description: [Evaluation test of activity for inhibiting the formation of NO]
Pharmacological tests of pyrimidine derivatives obtained in Examples 1, 12, 14, 19, 22, 24, 29 and 42 used as test compounds were conducted as follows.
Preparation of culture media and method of cell culture were conducted in accordance with those described in J. Biol. Chem., Vol. 269, No. 1, pp. 711-715, (1994), and determination of formed amount of NO was conducted in accordance with the method described in Anal. Biochem., Vol. 126, pp. 131-138, (1982), respectively.
(1) Cell Culture and Inducible Synthesis of NO in the Cells by Stimulation with Lipopolysaccharide (LPS)
Cell strain RAW 264.7 (ATCC) derived from the macrophage of mouse was placed on each one of the wells on a microplate having 24-wells so as to put the cells in an amount of 1×10^5 cells/U (well). The cells were incubated for 24 hours in a phenol red free-RPMI-1640 culture medium (mfd. by GIBCO) to which 10% of fetal bovine serum, 100 U/ml of penicillin (mfd. by Dainippon Pharmaceutical Co., Ltd.) and 100 μg/ml of streptomycin (mfd. by Dainippon Pharmaceutical Co., Ltd.) were added.
Next, the reference culture medium was prepared by adding 2 mM of L-arginine (mfd. by Wako Pure Chemical Industries, Ltd.), 10 μM/ml of tetrahydrobiopterin (mfd. by ALEXIS) and 100 ng/ml of lipopolysaccharide (LPS)(mfd. by Sigma Chemical Co.) to a phenol red free-RPMI-1640 culture medium. While, the reference culture medium without containing LPS was used as the blanc culture medium.
On the other hand, the test culture medium, containing the test compound was prepared by adding 0.2% of the test compounds dissolved in dimethyl sulfoxide (DMSO) to the reference culture medium to adjust the final concentration of the test compound to 1×10^-6 M.
Each one of the blank culture medium, reference culture medium and test culture medium containing the test compound was added, respectively to the well on the micro-plate where the above-mentioned cell strain RAW 264.7 was placed, and was incubated for 24 hours.
(2) Measurement of the Amount of Formed NO
Quantitative measurement of NO cannot be made directly, due to its unstability. Therefore, the amount of NO is measured indirectly, thus by forming nitrous acid ion (hereunder referred to as NO2^-) which is stable product derived from NO by use of Griess reagent [consisting of 1% of sulfanylamide and 0.1% of sulfuric acid solution containing 0.1% N-(1-naphthyl)ethylenediamine dihydrochloride], and measure the amount of NO2^-.
Into the supernatant of each one of the culture media was admixed with the same amount of Griess reagent respectively, and subjected to reaction at room temperature for 10 minutes, then the optical absorbance at 540 nm of the thus reacted culture medium was measured. While, the optical absorbance of sodium nitrite solution diluted with the culture medium was referred to as the standard value, and the amount of NO2^- formed in each one of these incubated culture media was measured. The amounts of NO2^- formed in the reference culture medium and the test culture medium were corrected by using the value of formed amount of NO2^- in the blanc culture medium.
On the basis of that the ratio of amounts of NO2^- formed in the reference culture medium and that of formed in the test culture medium is corresponding to the ratio of amount of NO formed in the reference culture medium and that of formed in the test culture medium. Thus the amount of NO2^- formed in the reference culture medium is referred to as the value of 100, and the value of amount of NO2^- formed in the test culture medium is referred to as amount of NO formed in the test culture medium.

Structure (SMILES): COCc1cc(=O)n2ncc(-c3ccc(Sc4ccccc4)cc3)c2[nH]1 [Example 1, 4,7-dihydro-5-methoxymethyl-7-oxo-3-(4-phenylthiophenyl)pyrazolo[1,5-a]pyrimidine]
- activity at 1 µM: 56%
